A short description of data set [1]: PAMPA test (skin permeability model). To be noted: for permeability coefficient log Pe / permeation parameter CA(t)/CD(0) / retention factor R (membrane retention): 70% silicone oil-30% IPM membrane, 7 h incubation, 100 μM in 5% DMSO phosphate buffer pH 7, triplicate mean; for Papp at 7 h, 100 μM: PAMPA, pH 7. The protocol: The study was performed in triplicate and the results are presented as mean values. After the PAMPA tests was performed, a HPLC method was used to measure the concentrations of the investigated corticosteroids: the initial concentration–CD(0) in the starting solution, the residual concentration–CD(t) in the donor compartment (7 h after incubation) and the transferred concentration–CA(t) in the acceptor compartment (7 h after incubation). The assay was performed using the previously described HPLC method with mobile phase modification for determination of standard corticosteroids. The mobile phase modification was introduced to achieve complete separation standard corticosteroids peak from DMSO peak, which was used as cosolvent. DMSO was used as cosolvent with the aim of increasing the corticosteroid C-21 esters’ solubility. DMSO is one of the earliest and most widely studied penetration enhancers for transdermal drug delivery systems.
On the basis of the initial (100 μM) and calculated residual and transferred concentrations according to peak area comparison at zero time t0, the retention factors–R and permeability coefficients–logPe of investigated corticosteroids were obtained.
Phosphate buffer (pH = 7) was prepared by dissolving NaH2PO4·H2O (1.167 g) and Na2HPO4·7H2O (3.093 g) in water (1000 mL) with the fixed total concentration of 20 mM. The 5% DMSO solution were prepared dissolving DMSO in phosphate buffer. The corticosteroid solutions were prepared dissolving the investigated corticosteroid standards as well as new synthesized corticosteroid C-21 esters in 5% DMSO solution. […] An aliquot of previously prepared mixture (3.5 mL, 7 mL silicone oil and 3 mL IPM) was transferred into a 10 mL volumetric flask, dissolved and fill up to mark with n-hexane.
Permeation experiments were carried out in hydrophobic PVDF 96-well filter plates (Millipore, Molsheim, France). […] Next, in each well of acceptor plate, 5% DMSO solution (400 μL) was transferred with an automatic pipette and covered by the donor plate, creating a PAMPA sandwich. In each well of the donor plate solutions of the tested corticosteroid in 5% DMSO solution (100 μM, 300 μL) was transferred by the use of an automatic pipette. Each substance was measured in triplicate at iso-pH conditions (the same pH value in donor and receptor compartment). The donor plate was covered to prevent evaporation and the whole system set up to interact with the vibratory mixer. After 7 h, PAMPA sandwich was removed from the mixer and vibration, and using the HPLC method the concentration of the investigated substances in the donor and receptor compartments were determined. The HPLC method used was as previously described but with some necessary modifications. A mobile phase of methanol–water (75:25 v/v) was used for analysis of corticosteroid C-21 esters, while the mobile phase methanol–water (50:50 v/v) was used for the analysis of unesterified corticosteroids to increase their retention time and prevent overlapping with the DMSO peak. Other HPLC parameters were as previously described. The concentrations of each tested corticosteroid in the appropriate time interval in the donor and acceptor compartments were calculated using the method of comparing the peak area of the initial concentration at zero time t0.
The values of permeability coefficients–logPe and retention factors–R of examined corticosteroids were calculated using equations (2) and (3). The retention factor, R can be defined as the mole fraction retained in the membrane and in the microplates (i.e., filters and plate materials): [drawing 1] (2) where CA(t)/CD(0) represents the amount of compound that reached the acceptor compartment after incubation time t (for VA = VD): […]
Background: PAMPA measures passive passage across an artificial lipid membrane.

The subject of data set [2] is croton oil induced mice ear edema. Particulars: 4 h after application, at ED50 of FA (28 μM); cited from earlier work.
Data set [3] in a line: approximate logKp (permeability coefficient through human skin) calculated from logPe by equation (1). Particulars: logKp = 1.34 logPe + 0.28, from PAMPA logPe. The text has this: Ottaviani and coworkers predicted skin permeation of numerous compounds applying a new membrane (70% silicone oil and 30% IPM) in the PAMPA test and presented permeate classifications on the basis of available literature permeability coefficients through human skin, logKp.
The proposed equation for correlation between logKp and logPe for 31 investigated compounds was: […]

“And” between values parts separate entries of the source, which are not always exact repeats. Identical values can stand only once.

Take `CCOC(CC)C(=O)OCC(=O)C1(O)C(C)CC2C3CCC4=CC(=O)C=CC4(C)C3(F)C(O)CC21C` (centres unmarked) [DEX-21-EB, dexamethasone 21-(2′-ethoxybutyrate)]: in data set [1], the “permeability coefficient log Pe” value is reported as −4.58 ± 0.13 cm/s, the “permeation parameter CA(t)/CD(0)” value is recorded as 33.4 ± 1.2% and the “retention factor R (membrane retention)” value is reported as 11.3 ± 3.5%.

`CCOC(C)C(=O)OCC(=O)C1(O)C(C)CC2C3CCC4=CC(=O)C=CC4(C)C3(F)C(O)CC21C` (centres unmarked) [DEX-21-EP, dexamethasone 21-(2′-ethoxypropionate)]: in data set [1], the “permeation parameter CA(t)/CD(0)” value was determined as 31.6 ± 0.6% and the “retention factor R (membrane retention)” value is listed as <1%.

With `CCC(OC)C(=O)OCC(=O)C1(O)C(C)CC2C3CCC4=CC(=O)C=CC4(C)C3(F)C(O)CC21C` (centres unmarked) [DEX-21-MB, dexamethasone 21-(2′-methoxybutyrate)], in data set [1], the “permeability coefficient log Pe” value was −4.58 ± 0.15 cm/s, the “permeation parameter CA(t)/CD(0)” value stood at 37.4 ± 1.5% and the “retention factor R (membrane retention)” value is <1%.

On to `COC(C)C(=O)OCC(=O)C1(O)C(C)CC2C3CCC4=CC(=O)C=CC4(C)C3(F)C(O)CC21C` (centres unmarked) [DEX-21-MP, dexamethasone 21-(2′-methoxypropionate)], for which, in data set [1], the “permeability coefficient log Pe” value is −4.88 ± 0.17 cm/s, the “permeation parameter CA(t)/CD(0)” value is on record as 23.8 ± 1.5% and the “retention factor R (membrane retention)” value is <1%.

In the case of `CC(Oc1ccccc1)C(=O)OCC(=O)C1(O)C(C)CC2C3CCC4=CC(=O)C=CC4(C)C3(F)C(O)CC21C` (centres unmarked) [DEX-21-PhP, dexamethasone 21-(2′-phenoxypropionate)], in data set [1], the “permeation parameter CA(t)/CD(0)” value turned out to be 4.1 ± 1.1% and the “retention factor R (membrane retention)” value is 86.5 ± 4.2%.

In the case of `CCOC(CC)C(=O)OCC(=O)C12OC(C)(C)OC1CC1C3CC(F)C4=CC(=O)C=CC4(C)C3(F)C(O)CC12C` (centres unmarked) [FA-21-EB, fluocinolone acetonide 21-(2′-ethoxybutyrate)], in data set [1], the “permeability coefficient log Pe” value was −4.82 ± 0.10 cm/s, the “permeation parameter CA(t)/CD(0)” value came out at 7.2 ± 0.9% and the “retention factor R (membrane retention)” value worked out at 72.8 ± 2.6%. Further, the “relative anti-inflammatory activity (reduction of mass edema) in comparison to FA (100%)” value in data set [2] is reported as 60%.

`CCOC(C)C(=O)OCC(=O)[C@@]12OC(C)(C)O[C@@H]1C[C@H]1[C@@H]3C[C@H](F)C4=CC(=O)C=C[C@]4(C)[C@@]3(F)[C@@H](O)C[C@@]12C` (some centres unmarked) [FA-21-EP, fluocinolone acetonide 21-(2′-ethoxypropionate)]: in data set [1], the “permeability coefficient log Pe” value is −4.52 ± 0.19 cm/s, the “permeation parameter CA(t)/CD(0)” value stood at 22.2 ± 1.6% and the “retention factor R (membrane retention)” value was 45.8 ± 4.1%. Further, the “relative anti-inflammatory activity (reduction of mass edema) in comparison to FA (100%)” value in data set [2] was “less than 10%”.

Consider `CCC(OC)C(=O)OCC(=O)C12OC(C)(C)OC1CC1C3CC(F)C4=CC(=O)C=CC4(C)C3(F)C(O)CC12C` (centres unmarked) [FA-21-MB, fluocinolone acetonide 21-(2′-methoxybutyrate)], for which, in data set [1], the “permeability coefficient log Pe” value is recorded as −4.65 ± 0.12 cm/s, the “permeation parameter CA(t)/CD(0)” value worked out at 18.0 ± 1.3% and the “retention factor R (membrane retention)” value is reported as 47.2 ± 3.4%.

As for `COC(C)C(=O)OCC(=O)[C@@]12OC(C)(C)O[C@@H]1C[C@H]1[C@@H]3C[C@H](F)C4=CC(=O)C=C[C@]4(C)[C@@]3(F)[C@@H](O)C[C@@]12C` (some centres unmarked) [FA-21-MP, fluocinolone acetonide 21-(2′-methoxy-propionate)], in data set [1], the “permeability coefficient log Pe” value was −4.64 ± 0.17 cm/s, the “permeation parameter CA(t)/CD(0)” value is 23.1 ± 1.4% and the “retention factor R (membrane retention)” value is listed as 34.1 ± 3.5%. In data set [2], the “relative anti-inflammatory activity (reduction of mass edema) in comparison to FA (100%)” value is reported as 108.12%.

Turning to `C[C@]12CCC(=O)C=C1CC[C@@H]1[C@@H]2[C@@H](O)C[C@@]2(C)[C@H]1CC[C@]2(O)C(=O)CO` [H, hydrocortisone, reference compound], the “retention factor R (membrane retention)” value in data set [1] is listed as 1.5 ± 0.9%.

What is called Papp is a coefficient for how fast a substance crosses the barrier. In the case of `CC(=O)OCC(=O)[C@@]1(O)CC[C@H]2[C@@H]3CCC4=CC(=O)CC[C@]4(C)[C@H]3[C@@H](O)C[C@@]21C` [H-21-Ac, hydrocortisone acetate, reference compound], in data set [1], the “permeation parameter CA(t)/CD(0)” value was 10% and 10.0 ± 1.7%; the “retention factor R (membrane retention)” value is on record as < 1%; the Papp at 7 h, 100 μM was 8.51 ×10⁻⁶ cm/s. For the same molecule, the “logKp (approximate, calculated)” value in data set [3] was −6.51.

`C[C@@H]1C[C@H]2[C@@H]3CCC4=CC(=O)C=C[C@]4(C)[C@@]3(Cl)[C@@H](O)C[C@]2(C)[C@@]1(OC(=O)c1ccco1)C(=O)CCl` [MF, mometasone furoate, reference compound]: in data set [1], the “permeation parameter CA(t)/CD(0)” value worked out at 7.7 ± 1.5%; the “retention factor R (membrane retention)” value was determined as 81.0 ± 2.9%; the Papp at 7 h, 100 μM is 79.4 ×10⁻⁶ cm/s. In data set [1] (listed as mometasone furoate), the “permeation parameter CA(t)/CD(0)” value worked out at 7.7% and the “retention factor R (membrane retention)” value was 81%. Moreover, the “permeate classification (groups I-III) from R versus CA(t)/CD(0)” value in data set [1] (relationship between retention factors and permeation parameters, Figure 2) is “group III (having high membrane retention and low permeation (group III))”. For the same molecule, in data set [3], the “logKp (approximate, calculated)” value was −5.21.

On to `CC1(C)O[C@@H]2C[C@H]3[C@@H]4CCC5=CC(=O)C=C[C@]5(C)[C@@]4(F)[C@@H](O)C[C@]3(C)[C@]2(C(=O)CO)O1` [TA, triamcinolone acetonide, reference compound], for which, in data set [1], the “permeation parameter CA(t)/CD(0)” value turned out to be 10.8 ± 1.5%; the “retention factor R (membrane retention)” value came out at 4.7 ± 2.3%; the Papp at 7 h, 100 μM is 9.77 ×10⁻⁶ cm/s. Moreover, in data set [3], the “logKp (approximate, calculated)” value is −6.43.

Regarding `CCOC(CC)C(=O)OCC(=O)C12OC(C)(C)OC1CC1C3CCC4=CC(=O)C=CC4(C)C3(F)C(O)CC12C` (centres unmarked) [TA-21-EB, triamcinolone acetonide 21-(2′-ethoxybutyrate)], in data set [1], the “permeability coefficient log Pe” value is listed as −4.87 ± 0.21 cm/s, the “permeation parameter CA(t)/CD(0)” value is 7.3 ± 1.6% and the “retention factor R (membrane retention)” value came out at 70.1 ± 3.4%.

As to `CCOC(C)C(=O)OCC(=O)C12OC(C)(C)OC1CC1C3CCC4=CC(=O)C=CC4(C)C3(F)C(O)CC12C` (centres unmarked) [TA-21-EP, triamcinolone acetonide 21-(2′-ethoxypropionate)], in data set [1], the “permeability coefficient log Pe” value was −4.66 ± 0.15 cm/s, the “permeation parameter CA(t)/CD(0)” value is reported as 23.0 ± 1.8% and the “retention factor R (membrane retention)” value is 32.4 ± 1.7%.

Take `CCC(OC)C(=O)OCC(=O)C12OC(C)(C)OC1CC1C3CCC4=CC(=O)C=CC4(C)C3(F)C(O)CC12C` (centres unmarked) [TA-21-MB, triamcinolone acetonide 21-(2′-methoxybutyrate)]: in data set [1], the “permeability coefficient log Pe” value is −4.85 ± 0.23 cm/s, the “permeation parameter CA(t)/CD(0)” value came to 16.9 ± 2.0% and the “retention factor R (membrane retention)” value stood at 39.3 ± 4.1%.

With `COC(C)C(=O)OCC(=O)C12OC(C)(C)OC1CC1C3CCC4=CC(=O)C=CC4(C)C3(F)C(O)CC12C` (centres unmarked) [TA-21-MP, triamcinolone acetonide 21-(2′-methoxypropionate)], in data set [1], the “permeability coefficient log Pe” value is given as −4.45 ± 0.16 cm/s, the “permeation parameter CA(t)/CD(0)” value is listed as 38.1 ± 1.6% and the “retention factor R (membrane retention)” value is recorded as 13.5 ± 4.1%.

As for `CC(Oc1ccccc1)C(=O)OCC(=O)C12OC(C)(C)OC1CC1C3CCC4=CC(=O)C=CC4(C)C3(F)C(O)CC12C` (centres unmarked) [TA-21-PhP, triamcinolone acetonide 21-(2′-phenoxypropionate)], in data set [1], the “permeability coefficient log Pe” value is reported as −4.07 ± 0.14 cm/s, the “permeation parameter CA(t)/CD(0)” value is listed as 27.1 ± 1.4% and the “retention factor R (membrane retention)” value is given as 51.1 ± 3.8%.

The values above are taken from PMC6268546, “A PAMPA Assay as Fast Predictive Model of Passive Human Skin Permeability of New Synthesized Corticosteroid C-21 Esters” (Molecules, 2012).
